Data set [1] in a line: in vitro. Particulars: human; for Papp A→B at 180 min, 25 µg/mL (extract) / Papp B→A at 180 min, 25 µg/mL (extract): Caco-2; for efflux ratio at 180 min, 25 µg/mL: Caco-2, Efflux ratio P BA/P AB.
For data set [2] the following is noted: cited from earlier work.
Data set [3] relates to Caco-2 cell monolayer. Particulars: human.
Data set [4] in a line: Bidirectional transport across the Caco-2 cell monolayer (LC/MS/MS). Particulars: human; for efflux ratio at 180 min, 25 µg/mL / efflux ratio at 180 min, 10 µM: Caco-2, Efflux ratio P BA/P AB; for efflux ratio at 180 min, 25 µg/mL: in A. cinnamomea extract (25 µg/mL); for efflux ratio at 180 min, 10 µM: as single compounds. A general note: Caco-2 cells form a polarised layer with tight junctions and transporters.

Data set [5] has as its system Caco-2 cultures. As to the kind of experiment: MTS assay on Caco-2 cultures. Type of data set: cell-based, human. To be noted: 10 µM. Here is the method: The pure compounds 5, 6, 10, 13 and 14 were added into the Caco-2 cultures at a final concentration of 10 µM.
(In general: Tetrazolium dyes change colour on reduction, which living cells bring about.)

In data set [6] the test system is Caco-2 cell monolayer. As to the kind of experiment: Bidirectional transport across the Caco-2 cell monolayer (LC/MS/MS). To be noted: for Efflux ratio P BA/P AB: as single compounds; for Efflux ratio P BA/P AB / permeability through the Caco-2 cell layer: 10 µM; for decrease of PBA in extract compared to the single form: extract versus single compound; for P app P BA: BL to AP; for permeability through the Caco-2 cell layer: pure compounds.

A short description of data set [7]: Solubility (stated in words). To be noted: both in the extract and single forms (13 and 14).
Data set [8] is described as follows: Leakage marker sodium fluorescein transport, AP to BL, Caco-2 monolayer integrity. The class given is in vitro ADME. Particulars: human. Here is the method: The integrity of cell monolayers was also assessed by the transport of the leakage marker sodium fluorescein. On day 21, the Caco-2 monolayers were rinsed twice with pre-warmed HBSS and were then incubated with the same solution at 37 °C for 30 min, on a shaker at 50 rpm. The fluorescein was pre-dissolved in 1 mM NaOH/H2O (1:10, v/v), and then diluted to 1 mM with an appropriate volume of HBSS. The sodium fluorescein and blank HBSS were added to the AP (0.5 mL) and BL side (1.5 mL), respectively. At 30, 60, 90, and 120 min, each 0.3 mL of the solution from BL side was collected, and replaced with an equal volume of HBSS. The sodium fluorescein intensity was determined with a Hitachi F-4500 fluorometer (excitation wavelength 490 nm, emission 525 nm).

Where [9] appears, read: in A. cinnamomea extract (25 µg/mL).

Entries after “also recorded” stand apart in the source; their conditions may differ. Where two headings read alike, the source gives them in different places.

Broadly, the Papp B→A is how fast a substance crosses the layer from the basolateral side. As usually defined, the efflux ratio is the permeability from basolateral to apical divided by that in the opposite direction, in the common usage. On to `C=C(CC[C@@H](C)[C@H]1CC[C@H]2C3=C(C(=O)C[C@]12C)[C@@]1(C)CCC(=O)[C@@H](C)[C@@H]1CC3)C(C)C(=O)O` (mixture of isomers) [compound 11, (R/S)-antcin A], for which, in data set [1], the Papp A→B at 180 min, 25 µg/mL (extract) came out at 792 ± 42 nm/s; the Papp B→A at 180 min, 25 µg/mL (extract) was 479 ± 23 nm/s; the efflux ratio at 180 min, 25 µg/mL is 0.6.
As to `C=C(CC[C@@H](C)[C@H]1CC[C@H]2C3=C(C(=O)C[C@]12C)[C@@]1(C)CC[C@@H](O)[C@](C)(O)[C@@H]1C[C@@H]3O)[C@H](C)C(=O)O` [compound 1, 25S-antcin K], in data set [1], the Papp A→B at 180 min, 25 µg/mL (extract) came out at 780 ± 86 nm/s; the Papp B→A at 180 min, 25 µg/mL (extract) is 532 ± 31 nm/s; the efflux ratio at 180 min, 25 µg/mL is 0.68. Moreover, the “plasma exposure” value in data set [2] (rat, in vivo) is “major plasma-exposed components”.
`C=C(CC[C@@H](C)[C@H]1CC[C@H]2C3=C(C(=O)C[C@]12C)[C@@]1(C)CC[C@@H](O)[C@](C)(O)[C@@H]1C[C@@H]3O)[C@@H](C)C(=O)O` [compound 2, 25R-antcin K]: in data set [1], the Papp A→B at 180 min, 25 µg/mL (extract) was 574 ± 27 nm/s; the Papp B→A at 180 min, 25 µg/mL (extract) was 448 ± 30 nm/s; the efflux ratio at 180 min, 25 µg/mL came to 0.78. Besides, the “plasma exposure” value in data set [2] (rat, in vivo) is “major plasma-exposed components”. The transport rate in data set [3] (Caco-2, 25 µg/mL) was 112%.
Take `C=C(CC[C@@H](C)[C@H]1CC[C@H]2C3=C(C(=O)C[C@]12C)[C@@]1(C)CCC(=O)[C@@H](C)[C@@H]1C[C@@H]3O)[C@H](C)C(=O)O` [compound 3, 25S-antcin C]: the “plasma exposure” value in data set [2] (rats, after A. cinnamomea) is given as “much lower plasma concentrations”. Further, in data set [4] (Caco-2), the Papp A→B at 180 min, 25 µg/mL (extract) turned out to be 682 ± 59 nm/s and the Papp B→A at 180 min, 25 µg/mL (extract) amounted to 499 ± 29 nm/s. In data set [4], the efflux ratio at 180 min, 25 µg/mL turned out to be 0.73.
`C=C(CC[C@@H](C)[C@H]1CC[C@H]2C3=C(C(=O)C[C@]12C)[C@@]1(C)CCC(=O)[C@@H](C)[C@@H]1C[C@@H]3O)[C@@H](C)C(=O)O` [compound 4, 25R-antcin C]: the “plasma exposure” value in data set [2] (rats, after A. cinnamomea) is given as “much lower plasma concentrations”. In data set [4] (Caco-2), the Papp A→B at 180 min, 25 µg/mL (extract) is 741 ± 190 nm/s and the apparent permeability from basolateral to apical (Papp B→A) at 180 min, 25 µg/mL (extract) was 513 ± 27 nm/s. Also, the efflux ratio at 180 min, 25 µg/mL in data set [4] turned out to be 0.69.
Regarding `C=C(CC[C@@H](C)[C@H]1CC[C@H]2C3=C(C(=O)[C@H](O)[C@]12C)[C@@]1(C)CC[C@@H](O)[C@@H](C)[C@@H]1CC3=O)[C@@H](C)C(=O)O` [compound 5, 25R-antcin H], in data set [5], the “toxicity to the cells (MTS assay)” value was “non-toxic”. In addition, the “plasma exposure” value in data set [2] (rats, after A. cinnamomea) is on record as “major plasma-exposed components”. In data set [4] (Caco-2), this compound registered a Papp A→B at 180 min, 10 µM of 372 ± 44 nm/s; a Papp A→B at 180 min, 25 µg/mL (extract) of 395 ± 64 nm/s; a Papp B→A at 180 min, 10 µM of 841 ± 135 nm/s; a Papp B→A at 180 min, 25 µg/mL (extract) of 347 ± 36 nm/s. Besides, in data set [4], the efflux ratio at 180 min, 10 µM is over 2 and the efflux ratio at 180 min, 25 µg/mL is 0.88. In data set [6], the “Efflux ratio P BA/P AB” value stood at 2.26, the “decrease of PBA in extract compared to the single form” value (from here on “decrease of PBA in extract”) was 50–60% and the “permeability through the Caco-2 cell layer” value is given as “could readily pass through; also recorded: high permeability”. For the same compound, the “P app P BA” value in data set [6] (setting [9]) is 3.0–3.8 ×10^−5 cm/s.
As for `C=C(CC[C@@H](C)[C@H]1CC[C@H]2C3=C(C(=O)[C@H](O)[C@]12C)[C@@]1(C)CC[C@@H](O)[C@@H](C)[C@@H]1CC3=O)[C@H](C)C(=O)O` [compound 6, 25S-antcin H], the “toxicity to the cells (MTS assay)” value in data set [5] is reported as “non-toxic”. For the same compound, the “plasma exposure” value in data set [2] (rats, after A. cinnamomea) was “major plasma-exposed components”. For the same compound, in data set [4] (Caco-2), the Papp A→B at 180 min, 10 µM is 314 ± 56 nm/s; the apparent permeability from basolateral to apical (Papp B→A) at 180 min, 10 µM worked out at 920 ± 134 nm/s; the Papp B→A at 180 min, 25 µg/mL (extract) was 305 ± 38 nm/s. Moreover, in data set [4], the efflux ratio at 180 min, 10 µM is over 2 and the efflux ratio at 180 min, 25 µg/mL came to 0.99. Besides, in data set [6], the “decrease of PBA in extract” value is on record as 50–60% and the “permeability through the Caco-2 cell layer” value is “could readily pass through; also recorded: high permeability”. Also, the “P app P AB” value in data set [6] (in A. cinnamomea extract (25 µg/mL), AP to BL) is 3.18 ± 0.34 ×10^−5 cm/s. In addition, the “P app P BA” value in data set [6] (setting [9]) is reported as 3.0–3.8 ×10^−5 cm/s.
Regarding `CC(C)=CCC[C@@H](C(=O)O)[C@H]1C[C@H](O)[C@@]2(C)C3=CC[C@H]4C(C)(C)[C@H](O)CC[C@]4(C)C3=CC[C@]12C` [compound 7, 3β,15α-dihydroxylanosta-7,9(11),24-triene-21-oic acid], in data set [1], the Papp A→B at 180 min, 25 µg/mL (extract) was found to be 374 ± 43 nm/s; the Papp B→A at 180 min, 25 µg/mL (extract) was determined as 357 ± 38 nm/s; the efflux ratio at 180 min, 25 µg/mL came out at 0.96. The compound also had a transport rate in data set [3] (Caco-2, 180 min, 25 µg/mL) of 38.8%.
As for `C=C(CC[C@@H](C(=O)O)[C@H]1C[C@H](O)[C@@]2(C)C3=CC[C@H]4C(C)(C)[C@@H](O)CC[C@]4(C)C3=CC[C@]12C)C(C)C` [compound 8, dehydrosulphurenic acid], the “solubility” value in data set [7] is reported as “very low”. Moreover, the “permeability” value is “very low” in data set [6] (both in the extract and single forms (13 and 14)); “poor permeability” in data set [6] (in A. cinnamomea extract).
For the compound `C=C(CC[C@@H](C)[C@H]1CC[C@H]2C3=C(C(=O)C[C@]12C)[C@@]1(C)CCC(=O)[C@@H](C)[C@@H]1CC3=O)[C@H](C)C(=O)O` [compound 9, 25S-antcin B], the “plasma exposure” value in data set [2] (rats, after A. cinnamomea) is listed as “much lower plasma concentrations”. For the same compound, in data set [4] (Caco-2), the Papp A→B at 180 min, 25 µg/mL (extract) worked out at 265 ± 53 nm/s and the Papp B→A at 180 min, 25 µg/mL (extract) turned out to be 276 ± 27 nm/s. For the same compound, the efflux ratio at 180 min, 25 µg/mL in data set [4] came to 1.04.
Consider `C=C(CC[C@@H](C)[C@H]1CC[C@H]2C3=C(C(=O)C[C@]12C)[C@@]1(C)CCC(=O)[C@@H](C)[C@@H]1CC3=O)[C@@H](C)C(=O)O` [compound 10, 25R-antcin B], for which the “toxicity to the cells (MTS assay)” value in data set [5] is “non-toxic”. Also, the “plasma exposure” value in data set [2] (rats, after A. cinnamomea) is listed as “much lower plasma concentrations”. In data set [4] (Caco-2), this compound gave a Papp A→B at 180 min, 10 µM of 283 ± 43 nm/s; a Papp A→B at 180 min, 25 µg/mL (extract) of 411 ± 92 nm/s; a Papp B→A at 180 min, 10 µM of 585 ± 58 nm/s; a Papp B→A at 180 min, 25 µg/mL (extract) of 386 ± 32 nm/s. For the same compound, in data set [4], the efflux ratio at 180 min, 10 µM was over 2 and the efflux ratio at 180 min, 25 µg/mL turned out to be 0.94. In addition, in data set [6], the “Efflux ratio P BA/P AB” value is on record as 2.07, the “decrease of PBA in extract” value is recorded as 50–60% and the “permeability through the Caco-2 cell layer” value is “could readily pass through; also recorded: high permeability”. Also, in data set [6] (setting [9]), the “P app P BA” value is reported as 3.0–3.8 ×10^−5 cm/s. Moreover, the “metabolites detected in the AP side” value in data set [6] (single compound 10 µM, 120 min (Fig. S2)) is listed as “two hydrogenated metabolites”.
With `CC(C)NCC(O)COc1cccc2ccccc12` (centres unmarked) [propranolol, reference compound], in data set [4] (Caco-2), the Papp A→B at 30 min stood at 351 ± 106 nm/s, the Papp A→B at 60 min amounted to 376 ± 45 nm/s, the Papp A→B at 90 min is 343 ± 46 nm/s and the Papp A→B at 120 min was 381 ± 34 nm/s. For the same compound, the “PAB value of marker compound” value in data set [6] (marker compound, AP to BL (Table S5)) is given as 3.81 ± 0.34 × 10^−5 cm/s.
On to `O=C1OC2(c3ccc(O)cc3Oc3cc(O)ccc32)c2ccccc21` [sodium fluorescein], for which, in data set [8] (1 mM, day 21 monolayer, read-out: Papp value AP to BL side), the Papp A→B at 1 mM is under 10 nm/s. The Papp A→B at 30 min, 1 mM in data set [8] (30 min) turned out to be 7.98 ± 1.99 nm/s. Further, the Papp A→B at 60 min, 1 mM in data set [8] (60 min) came to 7.71 ± 1.44 nm/s. Moreover, the Papp A→B at 90 min, 1 mM in data set [8] (90 min) is 7.65 ± 1.4 nm/s. The Papp A→B at 120 min, 1 mM in data set [8] (120 min) amounted to 7.08 ± 2.98 nm/s.

Source of the values: publication PMC4607679, “Intestinal Absorption of Ergostane and Lanostane Triterpenoids from Antrodia cinnamomea Using Caco-2 Cell Monolayer Model” (Natural Products and Bioprospecting, 2015).
